From US20230014352A1, “INHALED STATINS AS BRONCHODILATORS TO IMPROVE LUNG FUNCTION IN RESPIRATORY DISEASES” (priority 2019, published 2023)
“Also recorded” adds a separate entry of the source. Read-outs that look alike come from different tables or passages of the source.

Assays:
[1] = test system: primary human airway smooth muscle (ASM) cells; assay: Contractile force screening (CFS), basal ASM cell contraction (strain energy); assay type: cell-based; conditions: for strain energy (ASM contraction) / basal ASM cell contraction: 24 hours; for strain energy (ASM contraction): compared to pravastatin, FIG. 1C; for basal ASM cell contraction: FIG. 1A/1D
Description: Primary human airway smooth muscle (ASM) cells derived from both non-asthmatic and asthmatic donors were obtained from the Gift of Hope Organ and Tissue Donor Network. These cells have been well-characterized previously (see for example H. Yoshie et al., Biophys J (2018) 114(9):2194-99). All measurements were performed using cells at passage 5-8 from three non-asthmatic donors. Cells were grown on either 10% serum-containing F12 complete media, or serum-deprived media supplemented with insulin, transferrin, and selenium (Corning, Tewksbury, Mass.). Contractile Force Screening: Human ASM cells were grown to confluence in 96-well plates on custom NuSilTM 8100 elastic substrates (Avantor, Inc., Radnor, Pa.) (R. […] Fluorescent beads (diameter 400 nm) were embedded in the substrate surface to enable traction force calculations based on their displacements. To measure fractions, an inverted epi-fluorescence microscope (DMI 6000B, Leica Inc., Germany) equipped with a heated chamber (37° C.), a monochrome camera ([…]), and a motorized stage was used. Spatial images were recorded of substrate-embedded fluorescent beads at 10× magnification. Based on the bead displacements (resolution 15 μm) relative to a cell-free model, together with knowledge of substrate stiffness and thickness, fractions were computed using the approach of Fourier Transform Traction Cytometry ([…] et al., Pharmacol Ther (2014) 143(1):87-110), modified to the case of cell monolayers ([…] et al., Cell (2007) 129(3):511-22). From each fraction map, the root-mean-squared traction (RMST) value and strain energy were calculated and reported as a measure of normal contraction in the monolayer. On a well-by-well basis, the ratio of the strain energy after vs. before treatment was computed, and all values of a given treatment group were normalized to the mean of each treatment group. Comparison of Statins: […] MA is the immediate product of HMGCR action on HMB-CoA, so addition of MA would reverse the effect of statin inhibition of HMGCR. […] Simvastatin-acid (SA), atorvastatin, pravastatin, and pitavastatin were examined with CFS to determine the dose response of the ASM relaxation effect. […] From each ASM force map, the strain energy (i.e., the energy that is imparted to the substrate by the contractile cells, in pJ) was computed, to represent the average cellular contraction.

ASM cells [2] = assay: RealTime-Glo Annexin V Apoptosis and Necrosis assay; assay type: cell-based, human
Description: Lack of apoptosis: Some studies have shown that statins at high enough doses can reduce the viability of vascular smooth muscle cells, epithelial cells, and endothelial cells (S. Ghavami et al., Biochim Biophys Acta (2014) 1843(7):1259-71; T. P. Miettinen et al., Cell Rep (2015) 13(11):2610-20).
RealTime-Glo™ Annexin V Apoptosis and Necrosis assay was performed by growing ASM cells on 96-well white cell culture plate according to the manufacturer's instructions (Promega Inc). […] In this real-time annexin V binding assay, the luminescence signal was detected for apoptosis and necrosis was detected with a fluorescence signal by using a SpectraMax® plate reader. […] (20 μg/mL) was used as a positive control (FIG. 2).

ASM cells [3] = assay: Simulated deep breath (stretch-unstretch), cell mapping rheometry and CFS; assay type: cell-based, human; conditions: 10 μM, 30 min
Description: Well-defined biaxial stretch (4 sec duration, 10% magnitude) was imposed using the method of cell mapping rheometry. The strain energy from each ASM force map was computed as a metric of average cellular contraction, and reported as fold changes to the pre-stretch baseline value.
Normal ASM was treated with pitavastatin (1 μM, 24 hrs, n=7), isoproterenol (10 μM, 30 min, n=6) or vehicle (n=7), and examined by CFS as described above. […] Shown are contraction values normalized to the untreated control group. […] The contraction force gradually recovered over 180 seconds. […] All data are reported as mean and standard error of the mean (SEM).

[4] = test system: precision-cut human lung slices; assay: Histamine-induced bronchoconstriction in precision-cut human lung slices, pitavastatin and isoproterenol; conditions: 30 μM for 30 min after histamine 10 μM 15 min; FIG. 13
Description: The experiment was performed under serum-deprived media conditions, n=3-7 airways per group. Changes in lumen narrowing were reported as percentage changes (±SEM) of the pre-treatment state (see FIG. 13). The absolute value of lumen airway area was not statistically different between the pitavastatin and control groups at the pre-treatment state.

[5] = Tissue distribution of inhaled (nebulized) simvastatin, mass spectrometry; conditions: day 12, organs collected after euthanasia

CC[C@H](C)C(=O)O[C@H]1C[C@H](O)C=C2C=C[C@H](C)[C@H](CC[C@@H](O)C[C@@H](O)CC(=O)O)[C@H]21 [pravastatin]
strain energy (ASM contraction) ([1]; 0.4 μM): no effect
apoptosis and necrosis (cell death) (ASM cells [2]): no evidence of apoptosis or cell death

CC(C)c1nc(N(C)S(C)(=O)=O)nc(-c2ccc(F)cc2)c1/C=C/[C@@H](O)C[C@@H](O)CC(=O)O [rosuvastatin]
basal ASM cell contraction ([1]; 1 μM): little to no effect
apoptosis and necrosis (cell death) (ASM cells [2]): no evidence of apoptosis or cell death

CCC(C)(C)C(=O)O[C@H]1C[C@@H](C)C=C2C=C[C@H](C)[C@H](CC[C@@H](O)C[C@@H](O)CC(=O)O)[C@H]21 [simvastatin acid]
dose-dependent effect on ASM ([1]; primary ASM cells from three different human donors, FIG. 3): dose-dependently relax ASM
start of ASM relaxing effects ([1]; time-dependent effects, FIG. 4C): 4 h

CC(C)NCC(O)c1ccc(O)c(O)c1 (centres unmarked) [isoproterenol]
basal ASM contraction compared to untreated controls (ASM cells [3]; FIG. 12A): significantly inhibited basal ASM contraction
augmentation of stretch-induced ASM force relaxation (ASM cells [3]; FIG. 12B): not conferred; also recorded: notably absent
histamine (Hist)-induced bronchoconstriction [4]: reduced

CCC(C)(C)C(=O)O[C@H]1C[C@@H](C)C=C2C=C[C@H](C)[C@H](CC[C@@H]3C[C@@H](O)CC(=O)O3)[C@H]21 [simvastatin]
basal ASM cell contraction ([1]; 1 μM): more potent
ASM contraction over time compared to control ([1]; 1 μM, serum-deprived media, FIG. 10B): reduced ASM contraction time-dependently
tissue distribution [5]: mostly present in the mainstem bronchi and the lower lobes
apoptosis and necrosis (cell death) (ASM cells [2]; statin doses tested, FIGS. 2B-E): no evidence of apoptosis or cell death

CC(C)c1c(C(=O)Nc2ccccc2)c(-c2ccccc2)c(-c2ccc(F)cc2)n1CC[C@@H](O)C[C@@H](O)CC(=O)O [atorvastatin]
strain energy (ASM contraction) ([1]; 2 and 10 μM): significantly (and further) reduce strain energy
